ChEMBL document CHEMBL1201862, “PubChem BioAssay data set” (2004)
Blank lines part the entries; values can stand above or below the compound they belong to. Active and inactive are the calls of the source.

Experiments:
Leucine aminopeptidase = target: T1, Leucine aminopeptidase (Plasmodium falciparum 3D7, UniProt Q8IL11); assay: P. falciparum M17LAP inhibitors, primary screen, biochemical, fluorogenic H-Leu-NHMec substrate, 1536-well (AID 1619); assay type: functional
T1 sequence (Q8IL11 whole entry): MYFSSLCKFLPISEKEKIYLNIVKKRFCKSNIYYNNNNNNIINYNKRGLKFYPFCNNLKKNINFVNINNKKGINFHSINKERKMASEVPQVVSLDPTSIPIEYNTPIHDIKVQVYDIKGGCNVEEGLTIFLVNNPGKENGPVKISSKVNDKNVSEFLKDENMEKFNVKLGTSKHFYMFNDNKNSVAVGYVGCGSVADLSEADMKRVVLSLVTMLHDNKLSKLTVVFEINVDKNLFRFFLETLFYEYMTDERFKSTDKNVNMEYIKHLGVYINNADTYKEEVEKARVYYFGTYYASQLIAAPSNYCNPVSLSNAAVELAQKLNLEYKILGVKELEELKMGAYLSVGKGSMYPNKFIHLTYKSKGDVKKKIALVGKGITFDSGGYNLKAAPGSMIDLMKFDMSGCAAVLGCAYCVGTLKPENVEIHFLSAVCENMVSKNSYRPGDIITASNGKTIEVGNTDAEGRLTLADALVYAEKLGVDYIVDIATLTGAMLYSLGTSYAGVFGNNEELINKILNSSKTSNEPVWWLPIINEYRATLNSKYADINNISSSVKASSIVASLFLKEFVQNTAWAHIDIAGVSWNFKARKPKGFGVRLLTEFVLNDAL

[1] = target: Serine/threonine-protein phosphatase (Candida dubliniensis (strain CD36 / CBS 7987 / NCPF 3949 / NRRLY-17841) (Yeast), UniProt B9W6M3); assay: calcineurin pathway inhibitors in yeast reporter, dose response, S. cerevisiae, CDRE-lacZ, luminescence, secondary (AID 2388); assay type: functional, cell-based;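 also: yeast reporter cells carrying a calcineurin-responsive lacZ construct stimulated with calcium chloride; luminescent beta-galactosidase reporter signal in whole cells rather than isolated phosphatase activity; potency for inhibition where a drop in reporter signal means calcineurin blockade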
[2] = target: ATP-dependent molecular chaperone HSP82 (Candida albicans (strain WO-1) (Yeast), UniProt C4YTQ8); assay: loss of DOC-induced GRE-beta-galactosidase reporter signal, dose response, Hsp90 inhibitor project, S. cerevisiae, luminescence (AID 2400); assay type: functional, cell-based;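 also: beta-galactosidase luminescence from glucocorticoid response element reporter as proxy for Hsp90 function; inhibitor potency where signal loss means Hsp90 inhibition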
[3] = target: T2, DNA repair and recombination protein RAD54-like (Homo sapiens, UniProt Q92698); assay: inhibitors of human RAD54 branch migration, confirmation, biochemical, fluorescence, cherry-picked samples, dose series (AID 651657); assay type: functional
T2 sequence (Q92698 whole entry): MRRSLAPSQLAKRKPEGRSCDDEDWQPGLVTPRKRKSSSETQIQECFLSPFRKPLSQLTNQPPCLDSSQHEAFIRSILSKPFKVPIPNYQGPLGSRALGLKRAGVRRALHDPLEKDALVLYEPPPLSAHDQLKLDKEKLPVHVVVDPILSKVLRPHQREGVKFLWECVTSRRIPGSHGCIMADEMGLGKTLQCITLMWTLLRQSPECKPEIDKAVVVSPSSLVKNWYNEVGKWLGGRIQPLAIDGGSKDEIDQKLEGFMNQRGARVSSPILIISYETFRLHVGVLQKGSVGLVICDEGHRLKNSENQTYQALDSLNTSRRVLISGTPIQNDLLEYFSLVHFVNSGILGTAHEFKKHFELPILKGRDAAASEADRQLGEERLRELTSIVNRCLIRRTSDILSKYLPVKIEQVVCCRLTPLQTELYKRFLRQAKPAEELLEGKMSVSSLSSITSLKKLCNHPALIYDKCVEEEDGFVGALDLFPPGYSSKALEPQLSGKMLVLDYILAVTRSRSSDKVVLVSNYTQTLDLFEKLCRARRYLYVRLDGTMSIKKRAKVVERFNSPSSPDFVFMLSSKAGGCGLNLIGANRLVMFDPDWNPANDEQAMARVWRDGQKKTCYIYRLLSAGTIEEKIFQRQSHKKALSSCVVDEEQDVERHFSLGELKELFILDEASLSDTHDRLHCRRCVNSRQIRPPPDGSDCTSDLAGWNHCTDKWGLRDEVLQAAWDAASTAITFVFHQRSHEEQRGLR

[4] = target: Dual specificity tyrosine-phosphorylation-regulated kinase 1A (Rattus norvegicus, UniProt Q63470); assay type: biochemical, Homo sapiens
HEK293 = assay: inhibitors of LMP1-driven NF-kB reporter, dose response, cell-based, HEK293, luciferase, cherry-pick (AID 588343); assay type: functional; settings: Homo sapiens
[5] = target: T3, DNA repair protein RAD52 homolog (Homo sapiens, UniProt P43351); assay type: functional, biochemical
T3 sequence (P43351 whole entry): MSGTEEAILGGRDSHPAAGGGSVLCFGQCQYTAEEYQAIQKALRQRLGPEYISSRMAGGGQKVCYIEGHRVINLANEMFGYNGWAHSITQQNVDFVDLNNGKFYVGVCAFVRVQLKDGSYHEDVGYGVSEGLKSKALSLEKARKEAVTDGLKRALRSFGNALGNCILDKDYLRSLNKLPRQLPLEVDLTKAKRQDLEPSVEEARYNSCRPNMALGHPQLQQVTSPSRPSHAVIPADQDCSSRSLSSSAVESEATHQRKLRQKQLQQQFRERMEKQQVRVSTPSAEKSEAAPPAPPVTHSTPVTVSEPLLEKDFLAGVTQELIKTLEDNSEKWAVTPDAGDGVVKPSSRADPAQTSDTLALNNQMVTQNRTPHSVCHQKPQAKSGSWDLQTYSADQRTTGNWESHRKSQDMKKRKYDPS

[6] = target: Lytic switch protein BZLF1 (Epstein-Barr virus (strain B95-8) (HHV-4) (Human herpesvirus 4), UniProt P03206); assay: EBV ZTA inhibitors, dose response, counter-screen for EBNA-1 inhibitor project, biochemical, fluorescence polarization, Epstein-Barr virus, 1536-well (AID 2377); set-up: species or system human gammaherpesvirus 4;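 also: fluorescence polarization of Cy5-labelled ZRE DNA probe bound by purified Zta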
[7] = target: Type-1 angiotensin II receptor (Homo sapiens, UniProt P30556); assay: AT1 receptor antagonists, dose response, selectivity assay for APJ receptor antagonist project, cell-based, uHTS hits (AID 463214); assay type: functional;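 also: antagonist potency against angiotensin II stimulated AT1 response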
[8] = target: Epstein-Barr nuclear antigen 1 (Epstein-Barr virus (strain B95-8) (HHV-4) (Human herpesvirus 4), UniProt P03211); assay: EBNA-1 inhibitors, dose response, biochemical, fluorescence polarization, 1536-well (AID 2381); set-up: species or system human gammaherpesvirus 4;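 also: fluorescence polarization of a Cy5 DNA probe bound by EBNA-1 protein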
Beta-galactosidase = Beta-galactosidase (Escherichia coli, UniProt Q8VNN2); assay: PubChem AID 485352; assay type: functional
[9] = target: T4, Endoribonuclease toxin MazF (Escherichia coli K-12, UniProt P0AE70); assay: MazF toxin RNase activators, dose response, biochemical, fluorescence, single-stranded RNA substrate, uHTS hits (AID 588481); assay type: functional
[10] = target: T4, Endoribonuclease toxin MazF; assay: fluorescent RNA oligo signal without MazF, dose response, counter-screen for MazEF activator project, biochemical, fluorescence, single-stranded RNase substrate (AID 588502); assay type: functional

T4 sequence (P0AE70 whole entry): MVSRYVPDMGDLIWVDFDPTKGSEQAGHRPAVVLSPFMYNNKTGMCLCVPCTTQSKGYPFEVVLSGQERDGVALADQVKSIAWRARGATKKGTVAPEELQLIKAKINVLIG
Sequence of Beta-galactosidase (Q8VNN2 whole entry): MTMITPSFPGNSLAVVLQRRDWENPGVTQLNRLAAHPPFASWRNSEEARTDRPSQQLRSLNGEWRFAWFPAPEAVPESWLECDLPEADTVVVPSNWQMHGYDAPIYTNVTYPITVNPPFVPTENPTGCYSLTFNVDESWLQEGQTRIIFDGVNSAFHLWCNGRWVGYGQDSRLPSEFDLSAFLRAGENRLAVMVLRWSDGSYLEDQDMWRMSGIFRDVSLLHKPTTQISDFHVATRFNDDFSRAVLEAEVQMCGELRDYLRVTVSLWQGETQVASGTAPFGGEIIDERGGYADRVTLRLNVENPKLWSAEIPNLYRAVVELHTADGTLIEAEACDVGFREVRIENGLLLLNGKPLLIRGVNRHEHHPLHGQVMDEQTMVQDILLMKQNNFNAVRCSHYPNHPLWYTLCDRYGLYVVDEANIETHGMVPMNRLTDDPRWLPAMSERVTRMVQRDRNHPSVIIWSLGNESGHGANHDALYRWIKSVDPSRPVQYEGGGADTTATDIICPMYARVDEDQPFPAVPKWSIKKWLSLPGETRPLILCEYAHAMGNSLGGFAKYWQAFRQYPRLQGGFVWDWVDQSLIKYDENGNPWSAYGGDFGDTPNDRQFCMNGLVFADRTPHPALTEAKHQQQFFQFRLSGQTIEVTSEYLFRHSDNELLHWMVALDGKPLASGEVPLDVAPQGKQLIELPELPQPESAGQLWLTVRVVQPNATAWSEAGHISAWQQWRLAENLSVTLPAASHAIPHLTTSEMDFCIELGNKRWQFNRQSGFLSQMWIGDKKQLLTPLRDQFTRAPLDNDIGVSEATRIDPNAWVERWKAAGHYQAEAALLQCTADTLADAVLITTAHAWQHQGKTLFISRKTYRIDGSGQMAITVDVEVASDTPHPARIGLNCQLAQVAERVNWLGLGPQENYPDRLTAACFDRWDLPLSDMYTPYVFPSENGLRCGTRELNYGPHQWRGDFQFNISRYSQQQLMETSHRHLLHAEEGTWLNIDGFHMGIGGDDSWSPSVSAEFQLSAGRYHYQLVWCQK
Sequence of Serine/threonine-protein phosphatase (B9W6M3 whole entry): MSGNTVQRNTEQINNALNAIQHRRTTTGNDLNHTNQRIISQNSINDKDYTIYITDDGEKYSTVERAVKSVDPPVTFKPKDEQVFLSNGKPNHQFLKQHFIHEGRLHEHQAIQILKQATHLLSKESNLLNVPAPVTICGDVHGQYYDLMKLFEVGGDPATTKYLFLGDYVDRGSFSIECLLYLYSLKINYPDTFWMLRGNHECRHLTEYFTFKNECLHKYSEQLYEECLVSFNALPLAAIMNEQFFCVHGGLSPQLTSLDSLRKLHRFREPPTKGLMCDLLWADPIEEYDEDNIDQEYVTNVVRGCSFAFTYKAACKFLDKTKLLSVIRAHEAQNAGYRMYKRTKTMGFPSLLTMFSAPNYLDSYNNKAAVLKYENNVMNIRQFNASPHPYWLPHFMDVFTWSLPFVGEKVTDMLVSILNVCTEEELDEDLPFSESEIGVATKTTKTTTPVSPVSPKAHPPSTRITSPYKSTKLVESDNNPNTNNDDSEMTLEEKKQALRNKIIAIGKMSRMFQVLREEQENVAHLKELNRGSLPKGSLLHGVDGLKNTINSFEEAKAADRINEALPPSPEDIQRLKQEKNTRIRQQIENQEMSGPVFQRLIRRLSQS
Sequence of Type-1 angiotensin II receptor (P30556 whole entry): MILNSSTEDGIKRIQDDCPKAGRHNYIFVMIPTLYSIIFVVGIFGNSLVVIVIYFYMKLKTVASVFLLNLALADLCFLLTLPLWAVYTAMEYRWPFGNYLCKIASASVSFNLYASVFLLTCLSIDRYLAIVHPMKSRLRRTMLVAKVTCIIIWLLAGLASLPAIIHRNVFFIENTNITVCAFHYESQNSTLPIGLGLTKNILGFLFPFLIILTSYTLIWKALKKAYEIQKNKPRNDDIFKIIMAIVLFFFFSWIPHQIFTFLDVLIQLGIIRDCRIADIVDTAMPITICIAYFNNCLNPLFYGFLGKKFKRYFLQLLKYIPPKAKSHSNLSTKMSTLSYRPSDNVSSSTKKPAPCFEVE
Sequence of Lytic switch protein BZLF1 (P03206 whole entry): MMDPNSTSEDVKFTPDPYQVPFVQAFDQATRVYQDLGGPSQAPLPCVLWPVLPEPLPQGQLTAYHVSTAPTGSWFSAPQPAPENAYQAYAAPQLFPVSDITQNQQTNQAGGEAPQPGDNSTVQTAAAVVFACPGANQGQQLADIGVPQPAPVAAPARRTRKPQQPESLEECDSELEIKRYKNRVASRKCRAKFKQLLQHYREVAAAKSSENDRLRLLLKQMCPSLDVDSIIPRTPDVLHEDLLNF
Sequence of ATP-dependent molecular chaperone HSP82 (C4YTQ8 whole entry): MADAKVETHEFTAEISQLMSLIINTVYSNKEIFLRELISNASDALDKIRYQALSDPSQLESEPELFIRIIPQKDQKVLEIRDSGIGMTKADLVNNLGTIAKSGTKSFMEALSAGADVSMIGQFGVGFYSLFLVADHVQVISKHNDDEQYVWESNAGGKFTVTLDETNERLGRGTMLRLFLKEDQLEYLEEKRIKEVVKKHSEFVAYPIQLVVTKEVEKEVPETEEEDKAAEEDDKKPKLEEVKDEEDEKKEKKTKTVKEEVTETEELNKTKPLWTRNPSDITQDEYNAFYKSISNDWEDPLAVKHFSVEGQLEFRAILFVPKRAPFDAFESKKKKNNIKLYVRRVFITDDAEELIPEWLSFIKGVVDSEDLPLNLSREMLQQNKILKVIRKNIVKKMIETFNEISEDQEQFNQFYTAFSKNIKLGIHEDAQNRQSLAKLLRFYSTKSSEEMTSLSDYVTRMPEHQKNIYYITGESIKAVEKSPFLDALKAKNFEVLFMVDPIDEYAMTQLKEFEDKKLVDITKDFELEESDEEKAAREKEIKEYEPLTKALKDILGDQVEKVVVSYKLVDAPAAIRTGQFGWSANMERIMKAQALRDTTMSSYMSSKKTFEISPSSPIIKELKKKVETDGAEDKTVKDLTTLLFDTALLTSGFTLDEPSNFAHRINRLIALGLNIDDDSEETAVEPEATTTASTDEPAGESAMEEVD
Sequence of Epstein-Barr nuclear antigen 1 (P03211 whole entry): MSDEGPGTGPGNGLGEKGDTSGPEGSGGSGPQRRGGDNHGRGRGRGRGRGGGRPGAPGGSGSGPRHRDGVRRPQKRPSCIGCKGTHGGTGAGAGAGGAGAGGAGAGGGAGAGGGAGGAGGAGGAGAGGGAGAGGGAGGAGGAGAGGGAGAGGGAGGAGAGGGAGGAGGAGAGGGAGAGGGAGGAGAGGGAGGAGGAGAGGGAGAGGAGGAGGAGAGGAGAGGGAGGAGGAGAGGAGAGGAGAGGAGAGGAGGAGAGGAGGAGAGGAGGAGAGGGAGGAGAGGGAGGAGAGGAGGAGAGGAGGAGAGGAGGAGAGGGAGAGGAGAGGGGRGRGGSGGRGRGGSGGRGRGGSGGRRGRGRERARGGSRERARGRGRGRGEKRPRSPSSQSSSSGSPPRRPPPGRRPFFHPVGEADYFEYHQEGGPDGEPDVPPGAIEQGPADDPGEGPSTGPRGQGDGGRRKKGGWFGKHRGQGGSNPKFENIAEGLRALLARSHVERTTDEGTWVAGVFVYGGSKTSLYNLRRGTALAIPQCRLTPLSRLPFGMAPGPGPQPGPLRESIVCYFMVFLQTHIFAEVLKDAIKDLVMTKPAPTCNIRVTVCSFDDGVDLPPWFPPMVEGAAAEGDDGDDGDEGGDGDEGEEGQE

- IC50 (Leucine aminopeptidase): 23.8 µM (active)
- EC50 [1]: > 180 µM (inactive)
- EC50 [2]: > 150 µM (inactive)
Compound: COc1ccc(-n2c(-c3cccc(C)c3[N+](=O)[O-])n[nH]c2=S)cc1

Compound: Nc1cc2ccncc2c2ccccc12
- AC50 [3]: 11.8 µM (active)
- AC50 [4]: 1.23 µM (active)
- AC50 (HEK293): 9.97 µM (active)
- AC50 [5]: 14.2 µM (active)

- IC50 [6]: > 111 µM (not active)
- IC50 [7]: > 40 µM (not active)
- IC50 [8]: 11.3 µM (not active)
- EC50 (Beta-galactosidase): > 40 µM (inactive)
Compound: CC(C)C(=O)Nc1cccc(C(=O)OCC(=O)c2ccc(Cl)cc2Cl)c1

Compound: Cc1cc(C)c(NC(=O)Cn2nnc(C(=O)NCc3ccc4c(c3)OCO4)c2N)c(C)c1
- EC50 [9]: > 99 µM (inactive)
- EC50 [10]: > 99 µM (inactive)
